This passage reports IC50 and inhibition results from patent US7879876B2, “Sulfonamide derivatives and use thereof for the modulation of metalloproteinases” (Merck Serono SA, priority 2005, dated 2011).

SMILES strings stand for the structures.

Holding throughout (assay type): biochemical
One experiment addresses metalloelastase (MMP-12) (Homo sapiens, UniProt P39900). Nature of the experiment: MMP-12 enzyme inhibition assay (coumarin-labelled peptide substrate). Conditions: read-out: IC50 MMP12. How it is done:
(§1) Compounds of the invention were tested to assess their activities as inhibitors of MMP-1, MMP-2, MMP-9, MMP-14, MMP-12 and TACE. MMP-9 Assay Protocol
(§2) Compounds of the invention were tested for inhibitory activity against 92 kDa gelatinase (MMP-9) in an assay using a coumarin-labeled peptide substrate, (7-methoxycoumarin-4-yl)acetyl-Pro-Leu-Gly-Leu-(3-[2,4-dinitrophenyl]-L-2,3diaminopropionyl)-Ala-Arg-NH2 (McaPLGLDpaAR) (Knight et al, FEBS Lett. 1992; 263-266).
(§3) Stock solutions were made up as follows: Assay Butter: 100 mM Tris-HCl pH 7.6 containing 100 mM NaCl, 10 mM CaCl2, and 0.05% Brij 35.
(§4) Substrate: 0.4 mM McaPLGLDpaAR (from Bachem) (0.437 mg/ml) stock solution in 100% DMSO (stored at −20° C.). Dilute to 8 μM in assay butter.
(§5) Enzyme: Recombinant human 92 kDa gelatinase (MMP-9; APMA (4-aminophenyl mercuric acetate)-activated if necessary) appropriately diluted in assay butter.
(§6) Test Compounds were prepared initially as 10 mM compound solution in 100% DMSO, diluted to 1 mM in 100% DMSO, then serially diluted 3-fold in 100% DMSO across columns 1-10 of a 96-well microtitre plate Assay concentration range, 100 μM (column 1) to 5.1 nM (column 10).
(§7) The assay was performed in a total volume of 100 μL per well in 96-well microtitre plates. Activated enzyme (20 μL) was added to the wells followed by 20 μL of assay butter. Appropriate concentrations of test compounds dissolved in 10 μL of DMSO were then added followed by 50 μL of McaPLGLDpaAR (8 μM, prepared by dilution of DMSO stock in assay butter). For each as say ten concentrations of test compound were examined in duplicate. Control wells lack either enzyme or test compound. The reactions were incubated at 37° C. for 2 hours. The fluorescence at 405 nm was measured immediately with an SLT Fluostar fluorometer (SL T Labinstruments GmbH, Grödig, Austria) using 320 nm excitation, without stopping the reaction.
(§8) The effect of the test compound was determined from the dose response curve generated by the 10 duplicate concentrations of inhibitor. The IC50 (the concentration of compound required to give a 50% decrease in enzyme activity) was obtained by fitting data to the equation, Y=a+((b−a)/(1+(c/X)^d)). (Y=inhibition achieved for a particular dose; X=the dose in nM; a=minimum y or zero % inhibition; b=maximum y or 100% inhibition; c=is the IC50; d=is the slope). The result was rounded to one significant figure.
Compounds of the invention were tested for inhibitory activity against metalloelastase (MMP-12) in an assay using a coumarin-labelled peptide substrate, (7-methoxycoumarin-4-yl)acetyl-Pro-Leu-Gly-Leu-(3-[2,4-dinitrophenyl]-L-2,3-diaminopropionyl)-Ala-Arg-NH2 (McaPLGLDpaAR) (Knight et al, 1992, above). The protocol for this assay was as described for the MMP-9 assay above.

A further experiment addresses T1, collagenase (MMP-1) (Homo sapiens, UniProt P03956).
T1 sequence (P03956 100-469): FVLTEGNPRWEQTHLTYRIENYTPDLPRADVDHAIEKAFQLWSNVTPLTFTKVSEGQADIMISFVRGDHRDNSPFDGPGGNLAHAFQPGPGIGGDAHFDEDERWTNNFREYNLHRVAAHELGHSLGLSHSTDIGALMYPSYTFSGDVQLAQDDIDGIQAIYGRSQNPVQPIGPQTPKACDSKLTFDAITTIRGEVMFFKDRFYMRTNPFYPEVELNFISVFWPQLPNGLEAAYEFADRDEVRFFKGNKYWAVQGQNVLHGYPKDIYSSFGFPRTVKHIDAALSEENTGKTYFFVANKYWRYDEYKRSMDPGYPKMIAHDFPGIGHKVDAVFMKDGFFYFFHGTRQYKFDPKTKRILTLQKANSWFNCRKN
The experiment in a line: MMP-1 enzyme inhibition assay (coumarin-labelled peptide substrate). The following applies: @ 5 μM; read-out: percentage inhibition MMP1. How it is done: as §1, §2, §3, §4, §5, §6, §7, §8
Compounds of the invention were tested for inhibitory activity against collagenase (MMP-1) in an assay using a coumarin-labelled peptide substrate, (7-methoxycoumarin-4-yl)acetyl-Pro-Leu-Gly-Leu-(3-[2,4-dinitrophenyl]-L-2,3diaminopropionyl)-Ala-Arg-NH2 (Mca PLGLDpaAR) (Knight et al, 1992, above). The protocol for this assay was as described for the MMP-9 assay above.

Experiment [1] addresses 92 kDa gelatinase (MMP-9) (Homo sapiens, UniProt P14780). Nature of the experiment: MMP-9 enzyme inhibition assay (coumarin-labeled peptide substrate). The following applies: read-out: IC50 MMP9. How it is done: as §1, §2, §3, §4, §5, §6, §7, §8
The target of the next experiment is T2, gelatinase A (MMP-2) (Homo sapiens, UniProt P08253).
T2 sequence (P08253 110-660): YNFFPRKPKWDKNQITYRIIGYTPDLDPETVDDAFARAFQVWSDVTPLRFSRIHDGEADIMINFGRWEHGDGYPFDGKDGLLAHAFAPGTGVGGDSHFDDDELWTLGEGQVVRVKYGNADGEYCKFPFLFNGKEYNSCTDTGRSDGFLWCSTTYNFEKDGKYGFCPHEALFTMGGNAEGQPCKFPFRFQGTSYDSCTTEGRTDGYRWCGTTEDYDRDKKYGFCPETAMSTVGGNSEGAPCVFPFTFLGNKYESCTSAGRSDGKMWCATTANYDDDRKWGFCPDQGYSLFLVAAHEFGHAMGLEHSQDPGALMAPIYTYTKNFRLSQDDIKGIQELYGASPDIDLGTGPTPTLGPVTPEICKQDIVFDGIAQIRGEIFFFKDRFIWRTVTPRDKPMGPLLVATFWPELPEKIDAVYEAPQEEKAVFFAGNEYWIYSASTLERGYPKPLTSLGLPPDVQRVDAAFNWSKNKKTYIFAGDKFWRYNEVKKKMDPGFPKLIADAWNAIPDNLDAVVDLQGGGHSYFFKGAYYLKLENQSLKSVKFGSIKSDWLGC
Nature of the experiment: MMP-2 enzyme inhibition assay (coumarin-labelled peptide substrate). Conditions: read-out: IC50 MMP2. How it is done: Compounds of the invention were tested to assess their activities as inhibitors of MMP-1, MMP-2, MMP-9, MMP-14, MMP-12 and TACE. MMP-9 Assay Protocol […]
as §3
Substrate: 0.4 mM McaPLGLDpaAR (from Bachem) (0.437 mg/ml) stock solution in 100% DMSO (stored at −20° C.). Dilute to 8 μM in assay butter. […]
as §6, §7, §8
Compounds of the invention were tested for inhibitory activity against gelatinase A (MMP-2) in an assay using a coumarin-labelled peptide substrate, (7-methoxycoumarin-4-yl)acetyl-Pro-Leu-Gly-Leu-(3-[2,4-dinitrophenyl]-L-2,3diaminopropionyl)-Ala-Arg-NH2 (Mca PLGLDpaAR) (Knight et al, 1992, above). The protocol for this assay was as described for the MMP-9 assay above.

A further experiment concerns the target MMP-14 (Homo sapiens, UniProt P50281). The experiment in a line: MMP-14 enzyme inhibition assay (coumarin-labelled peptide substrate). Conditions: @ 5 μM; read-out: percentage inhibition MMP14. On the procedure:
as §1, §2, §3, §4, §5, §6, §7, §8
Compounds of the invention were tested for inhibitory activity against MMP-14 in an assay using a coumarin-labelled peptide substrate, (7-methoxycoumarin-4-yl)acetyl-Pro-Leu-Gly-Leu-(3-[2,4-dinitrophenyl]-L-2,3diaminopropionyl)-Ala-Arg-NH2 (Mca PLGLD paAR) (Knight et al, 1992, above). The protocol for this assay was as described for the MMP-9 assay above.

The target of a further experiment is MMP13 (Homo sapiens, UniProt P45452). The experiment in a line: MMP13 inhibition (Table 1). Conditions: read-out: percentage inhibition MMP13.

Sequence of metalloelastase (MMP-12) (P39900 106-470): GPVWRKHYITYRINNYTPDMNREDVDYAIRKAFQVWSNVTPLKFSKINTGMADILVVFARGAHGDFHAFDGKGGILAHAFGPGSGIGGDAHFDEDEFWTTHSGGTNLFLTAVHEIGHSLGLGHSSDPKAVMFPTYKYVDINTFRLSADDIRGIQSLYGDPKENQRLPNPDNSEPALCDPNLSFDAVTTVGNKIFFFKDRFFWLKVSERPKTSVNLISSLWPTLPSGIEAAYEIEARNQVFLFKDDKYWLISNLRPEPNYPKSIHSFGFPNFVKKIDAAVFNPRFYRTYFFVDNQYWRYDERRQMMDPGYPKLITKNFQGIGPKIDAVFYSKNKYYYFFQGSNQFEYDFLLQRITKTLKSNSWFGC
Sequence of 92 kDa gelatinase (MMP-9) (P14780 107-707 limits assumed): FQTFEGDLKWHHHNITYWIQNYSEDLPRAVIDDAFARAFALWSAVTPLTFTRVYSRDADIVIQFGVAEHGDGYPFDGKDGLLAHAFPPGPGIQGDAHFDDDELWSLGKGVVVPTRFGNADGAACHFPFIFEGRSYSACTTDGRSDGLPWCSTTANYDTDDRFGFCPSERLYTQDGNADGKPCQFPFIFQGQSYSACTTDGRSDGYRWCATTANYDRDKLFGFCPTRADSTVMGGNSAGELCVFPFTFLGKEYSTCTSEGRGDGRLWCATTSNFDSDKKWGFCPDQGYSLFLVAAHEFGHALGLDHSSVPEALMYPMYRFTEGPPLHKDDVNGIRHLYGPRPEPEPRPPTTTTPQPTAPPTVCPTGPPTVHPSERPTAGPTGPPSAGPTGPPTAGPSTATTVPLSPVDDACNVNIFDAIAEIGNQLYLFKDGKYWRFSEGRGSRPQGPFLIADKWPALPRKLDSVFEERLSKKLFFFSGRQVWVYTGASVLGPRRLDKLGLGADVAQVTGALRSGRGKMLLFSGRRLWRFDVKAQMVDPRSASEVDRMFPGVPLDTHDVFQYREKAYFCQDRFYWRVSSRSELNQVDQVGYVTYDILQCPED

As for `O=CN(O)C(CS(=O)(=O)N1CCc2ccccc2C1)c1cccs1` (stereo not shown) [Example 5, N-[2-(3,4-dihydroisoquinolin-2(1H)-ylsulfonyl)-1-(2-thienyl)ethyl]-N-hydroxyformamide], the half-maximal inhibitory concentration (IC50) on metalloelastase (MMP-12) is 16 nM; in experiment [1] it was over 5000 nM; at gelatinase A (MMP-2) it was 759 nM. For the same compound, the figures for the inhibition at 5 µM on collagenase (MMP-1), at MMP-14 and on MMP13 were 32%, 70% and 97%, respectively. Moreover, the inhibition at 0.1 µM on MMP13 (@ 0.1 μM) came to 16%.

As for `CC(C)(C(CS(=O)(=O)N1CCc2ccccc2C1)N(O)C=O)N1CCOCC1` (stereo not shown) [Example 8, N-{1-[(3,4-dihydroisoquinolin-2(1H)-ylsulfonyl)methyl]-2-methyl-2-morpholin-4-ylpropyl}-N-hydroxyformamide], the IC50 at metalloelastase (MMP-12) was 627 nM; in experiment [1], over 5000 nM; at gelatinase A (MMP-2), over 5000 nM. Also, the inhibition at 5 µM on collagenase (MMP-1) was 5%; at MMP-14, 8%; on MMP13, 41%.
